Earlier results in US10633688B2, “Systems and methods for predicting response to minoxidil for the treatment of androgenetic alopecia” (Follea International, priority 2010, dated 2020).

Assays:
[1] = system: female androgenetic alopecia; details: females
SULT1A1 = biological target: T1, SULT1A1 (Homo sapiens, UniProt P50225)
T1 construct: Plucked hairs were collected from the border between bald and non-bald scalp and inspected visually for an intact bulb; from tissue; host or cells: plucked anagen scalp hair (hair bulb / follicle) of AGA patients
T1 sequence (P50225 whole entry): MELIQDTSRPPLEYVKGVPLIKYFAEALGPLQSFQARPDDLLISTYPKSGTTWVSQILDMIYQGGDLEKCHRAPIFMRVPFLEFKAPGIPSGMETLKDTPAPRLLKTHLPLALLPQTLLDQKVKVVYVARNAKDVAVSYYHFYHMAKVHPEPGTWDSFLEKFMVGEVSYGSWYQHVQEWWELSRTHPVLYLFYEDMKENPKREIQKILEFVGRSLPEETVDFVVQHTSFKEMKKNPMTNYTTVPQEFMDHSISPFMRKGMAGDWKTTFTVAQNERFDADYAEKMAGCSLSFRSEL

Structure (SMILES) | effectiveness in the treatment of female androgenetic alopecia [1] | effect on SULT1A1 sulfation of minoxidil (SULT1A1)
CC(C)(C)NC(=O)[C@H]1CC[C@H]2[C@@H]3CC[C@H]4NC(=O)C=C[C@]4(C)[C@H]3CC[C@]12C [finasteride] | failed to show the effectiveness | 
O=C(O)c1ccccc1O [salicylic acid] |  | lower SULT1A1 sulfation of minoxidil by competitive inhibition
